Laboratory results taken from patent US9788542B2, “Safened herbicidal compositions including 4-amino-3-chloro-5-fluoro-6-(4-chloro-2-fluoro-3-methoxyphenyl)pyridine-2-carbox) acid or a derivative thereof for use in corn (maize)” (Dow AgroSciences LLC, priority 2013, dated 2017).
Several values for one entry are separate records, joined by “and”; a condition that tells them apart may be missing. Equal entries are not always repeated. Where two headings read alike, the source gives them in different places.

Assays:
Type in all cases: in vivo
ZEAMX = Zea mays L. = test: Postemergence herbicidal safening in corn (maize), greenhouse, visual injury; conditions: for ZEAMX Obs (observed visual injury, 0 = no injury, 100 = complete kill): applied alone at 4 g ai/ha
Protocol: (§1) When required to ensure good germination and healthy plants, a fungicide treatment and/or other chemical or physical treatment was applied. The plants were grown for 7-36 days in a greenhouse with an approximate 14 hour photoperiod which was maintained at about 18° C. during the day and 17° C. during the night. Nutrients and water were added on a regular basis and supplemental lighting was provided with overhead metal halide 1000-Watt lamps as necessary. The plants were employed for testing when they reached the second or third true leaf stage. Treatments consisted of ester (benzyl) compound of formula (I) (Compound A benzyl ester) and various safeners alone and in combination. Compound of formula (I) and safener components were applied on active ingredient basis. For treatments comprised of formulated compounds, measured amounts of compound of formula (I) were placed individually in 25 mL glass vials and diluted in a volume of 1.25% volume per volume (v/v) Agri-dex crop oil concentrate to obtain stock solutions. […] Stock solutions of the formulated safeners were prepared following the same procedure. Application solutions were prepared by mixing the required amount of each stock solution and addition of an appropriate volume of an aqueous mixture of 1.25% v/v of Agri-dex crop oil concentrate to the appropriate final concentrations of application solutions. […] Application solutions were prepared by adding an appropriate amount of each stock solution and diluted to the appropriate final concentrations with the addition of an appropriate volume of an aqueous mixture of 1.25% (v/v) Agri-dex crop oil concentrate. Application solutions were applied to the plant material with an overhead Mandel track sprayer equipped with […] nozzles calibrated to deliver 187 liters per hectare (L/ha) over an application area of 0.503 square meters (m^2) at a spray height of 18 inches ([…]) above average plant canopy. Control plants were sprayed in the same manner with the solvent blank. The treated plants and control plants were placed in a greenhouse as described above and watered by sub-irrigation to prevent wash-off of the test compounds. […] Colby's equation was used to determine the herbicidal effects expected from the mixtures (Colby, S. R. Calculation of the synergistic and antagonistic response of herbicide combinations. Weeds 1967, 15, 20-22.). The following equation was used to calculate the expected activity of mixtures containing two active ingredients, A and B: […] A=observed efficacy of active ingredient A at the same concentration as used in the mixture; B=observed efficacy of active ingredient B at the same concentration as used in the mixture.

[1] = system: HELAN = Helianthus annuus L.; test: Postemergence herbicidal activity, greenhouse, visual injury; conditions: for pest or weed control at 5 g/ha / pest or weed control at 40 g/ha: Helianthus annuus, post-emergence, 480 h, read-out: HELAN Obs (observed visual injury)
Protocol: as §1

[2] = system: ABUTH = Abutilon theophrasti Medik.; test: as above; conditions: for pest or weed control at 5 g/ha / pest or weed control at 40 g/ha: Abutilon theophrasti, post-emergence, 480 h, read-out: ABUTH Obs (observed visual injury)
Protocol: as §1

[3] = applied alone at 5 g ai/ha, postemergence, after 20-22 days
[4] = applied alone at 40 g ai/ha, postemergence, after 20-22 days
[5] = applied alone at 20 g ai/ha, postemergence, after 20-22 days
[6] = applied alone at 80 g ai/ha, postemergence, after 20-22 days
[7] = applied alone at 160 g ai/ha, postemergence, after 20-22 days
[8] = postemergence, after 20-22 days
[9] = applied alone at 6 g ai/ha, postemergence, after 20-22 days

SMILES | ZEAMX Obs (observed visual injury) (ZEAMX = Zea mays L.; [3]) | ZEAMX Obs (observed visual injury) (ZEAMX = Zea mays L.; [4]) | pest or weed control at 5 g/ha [1, 3] | pest or weed control at 40 g/ha [1, 4] | pest or weed control at 5 g/ha [2, 3] | pest or weed control at 40 g/ha [2, 4] | further results
C=CCN(CC=C)C(=O)C(Cl)Cl [Dichlormid, N,N-diallyl-2,2-dichloroacetamide] | 0% | 0% | 0% | 0% | 0% | 0% | –
NC(=O)NS(=O)(=O)c1ccccc1Cl [Compound 2-CBSU, N-(aminocarbonyl)-2-chlorobenzenesulfonamide] | 0% | 0% | 0% | 0% | 0% | 0% | –
CC1COc2ccccc2N1C(=O)C(Cl)Cl (racemic) [Benoxacor, (±)-4-(dichloroacetyl)-3,4-dihydro-3-methyl-2H-1,4-benzoxazine] | 0% | 0% | 0% | 0% | 0% | 0% | –
CCCCCC(C)OC(=O)COc1ccc(Cl)c2cccnc12 (stereo not shown) [Cloquintocet-mexyl] | – | 0% | – | – | – | – | ZEAMX Obs (observed visual injury) (ZEAMX = Zea mays L.; [5]): 0%; ZEAMX Obs (observed visual injury) (ZEAMX = Zea mays L.; [6]): 0%; ZEAMX Obs (observed visual injury) (ZEAMX = Zea mays L.; [7]): 0%
FC(F)(F)/C(=N/OCC1OCCO1)c1ccc(Cl)cc1 [Fluxofenim, 1-(4-chlorophenyl)-2,2,2-trifluoroethanone O-(1,3-dioxolan-2-ylmethyl)oxime] | 0% | 0% | 0% | 0% | 0% | 0% | –
COc1c(Cl)ccc(-c2nc(C(=O)OCc3ccccc3)c(Cl)c(N)c2F)c1F [Compound A benzyl ester] | – | 45% and 23% | – | – | – | – | ZEAMX Obs (observed visual injury, 0 = no injury, 100 = complete kill) (ZEAMX = Zea mays L.; [8]): 10%; ZEAMX Obs (observed visual injury) (ZEAMX = Zea mays L.; [9]): 16%; ZEAMX Obs (observed visual injury) (ZEAMX = Zea mays L.; [5]): 32%; HELAN Obs (observed visual injury) [1, 4]: 94%; ABUTH Obs (observed visual injury) [2, 4]: 95%
N#C/C(=N/OCC1OCCO1)c1ccccc1 [Oxabetrinil, α-[(1,3-dioxolan-2-yl)methoxyimino]benzeneacetonitrile] | 0% | 0% | 0% | 0% | 0% | 0% | –
CC1(C)CN2C(=O)CCC2(C)N(C(=O)C(Cl)Cl)C1 (racemic) [Dicyclonon] | 0% | 0% | 0% | 0% | 0% | 0% | –
Cc1ccc(NC(=O)NC(C)(C)c2ccccc2)cc1 [Daimuron, N-(4-methylphenyl)-N′-(1-methyl-1-phenylethyl)-urea] | – | – | 0% | 0% | 0% | 0% | ZEAMX Obs (observed visual injury) (ZEAMX = Zea mays L.; in vivo): 0%
CCOC(=O)C1=NOC(c2ccccc2)(c2ccccc2)C1 [Isoxadifen-ethyl, ethyl 4,5-dihydro-5,5-diphenyl-3-isoxazole-carboxylate] | 0% | 0% | – | – | – | – | ZEAMX Obs (observed visual injury, 0 = no injury, 100 = complete kill) (ZEAMX = Zea mays L.; [8]): 0%; ZEAMX Obs (observed visual injury) (ZEAMX = Zea mays L.; [9]): 0%; ZEAMX Obs (observed visual injury) (ZEAMX = Zea mays L.; applied alone at 8 g ai/ha, postemergence, after 20-22 days): 0%; ZEAMX Obs (observed visual injury) (ZEAMX = Zea mays L.; applied alone at 12 g ai/ha, postemergence, after 20-22 days): 0%; ZEAMX Obs (observed visual injury) (ZEAMX = Zea mays L.; [5]): 0%; ZEAMX Obs (observed visual injury) (ZEAMX = Zea mays L.; [6]): 0%; ZEAMX Obs (observed visual injury) (ZEAMX = Zea mays L.; [7]): 3%; pest or weed control at 5 g/ha [1]: 0%; pest or weed control at 40 g/ha [1]: 0%; pest or weed control at 5 g/ha [2]: 0%; pest or weed control at 40 g/ha [2]: 0%
CC1(C)OC(c2ccco2)CN1C(=O)C(Cl)Cl (racemic) [Furilazole, (±)-3-(dichloroacetyl)-5-(2-furanyl)-2,2-dimethyloxazolidine] | 0% | 0% | 0% | 0% | 0% | 0% | –
O=C1OC(=O)c2cccc3cccc1c23 [Naphthalic anhydride, naphthalene-1,8-dicarboxylic anhydride] | 0% | 0% | 0% | 0% | 0% | 0% | –
